{"source": "patent US20130316022A1", "about": "“METHOD TO ENHANCE ANTIMICROBIAL ACTIVITY BY INCREASING pH” (University of Iowa Research Foundation, priority 2012, published 2013)", "key": {"[1]": {"assay": "ASL pH measured in vivo with pH-sensitive planar optode on tracheal surface", "design": "species or system pig", "source_text": "To assess pH in vivo, we used non-invasive dual lifetime referencing to interrogate a 3×3 mm planar optode (pH sensitive foil, PreSens GmbH, Regensburg, Germany)^13 applied directly to the tracheal surface. The device used to transmit and receive the excitation and emission light was a single channel pH meter (pH-1 mini; PreSens GmbH). The tip of the fiberoptic pH meter was kept at the same distance from the tracheal surface in all samples and confirmed by recording the amplitude registered by the device. Calibration before each set of measurements was done by placing the planar optode on the surface of a flat filter soaked in standard pH buffers.\n(§1) To decrease airway pH in non-CF pigs, CO2 concentration was controlled in a humidified chamber (100% measured relative humidity, 25-30° C.) using 0 or 15% CO2 and 21% O2 in N2."}, "[2]": {"system": "S. aureus isolate 43SA", "assay": "Bacterial killing by S. aureus-coated grids placed on tracheal surface in vivo", "procedure": "Bacteria were cultured to log phase growth and 1×10^8 bacteria were mixed with 0.1 mg/ml N-hydroxysulfosuccinimide (sulfo-NHS)-biotin (Thermo Scientific) for 1 hour at room temperature. Streptavidin-coated grids were then incubated with biotinylated bacteria for 30 minutes and rinsed in PBS.\nBacteria-coated grids were used in three preparations. They were placed on the airway surface in vivo in pigs. They were tested in ASL removed from pigs after methacholine stimulation. They were also placed on the apical surface of primary cultures of differentiated airway epithelia. In each case, after removal from ASL, they were immediately (2-3 seconds) rinsed with PBS and then immersed in PBS containing the fluorescent indicators SYTO 9 and propidium iodide (Live/Dead BacLight™ Bacterial Viability assay, Invitrogen). Propidium iodide staining and this assay indicate the percentage of dead cells (Invitrogen, Molecular Probes product information and Fig. S7). […]\n(§2) For each experimental condition, time point, and/or animal, 2 or 3 grids were examined. For each grid, all live and dead bacteria were counted in 5-16 individual microscopic (60×) fields; each microscopic field contained about 100-1000 bacteria. […]\nas §1"}, "[3]": {"system": "S. aureus", "settings": "bacteria on grids exposed for 30 seconds", "procedure": "Gold grids (TEM grids, 200 mesh, Ted Pella Inc.) were immersed in 1 mM 11-mercaptoundecanoic acid (HS(CH2)10COOH, MUA, Aldrich) solution for 30 minutes at room temperature and then exposed to 1-ethyl-3-(3-diethylaminopropyl)carbodiimide (EDC) and N-hydroxysuccinimide (NHS) (molar ratio 1:2) for 30 minutes to activate the carboxyl groups of MUA. Grids were then placed in a phosphate buffer solution (PBS), pH 7.4, containing 10 μg/ml streptavidin (Sigma) for 30 minutes and then rinsed with PBS. Streptavidin-coated grids were immersed in 1 M glycine for 30 minutes to quench the reaction and then rinsed with PBS. We used S. aureus isolate 43SA (isolated from a CF pig with pulmonary infection^5), and P. aeruginosa PAO1. […] Bacteria were cultured to log phase growth and 1×10^8 bacteria were mixed with 0.1 mg/ml N-hydroxysulfosuccinimide (sulfo-NHS)-biotin (Thermo Scientific) for 1 hour at room temperature. Streptavidin-coated grids were then incubated with biotinylated bacteria for 30 minutes and rinsed in PBS.\nBacteria-coated grids were used in three preparations. They were placed on the airway surface in vivo in pigs. […]\nas §2"}}, "data": [{"compound": "O=C=O", "note": "[CO2, reference compound]", "values": [{"measurement": "ASL pH", "setting": "[1]; non-CF pigs, tracheas exposed to 15% CO2 in vivo", "value": "6.89 ± 0.15 (6)"}, {"measurement": "% dead", "setting": "[2]; non-CF pigs, 15% CO2, grids on surface for 30 seconds", "value": "18.5 ± 6.8 (4) %"}]}, {"compound": "ethanol [70% alcohol]", "values": [{"measurement": "% dead", "setting": "[3]", "value": 97, "unit": "%"}]}, {"compound": "O=C([O-])O.[Na+]", "note": "[NaHCO3]", "values": [{"measurement": "ASL pH", "setting": "[1]; CF pigs, 50 μL 100 mM aerosolized onto airway surface", "value": "7.43 ± 0.30 (7)"}, {"measurement": "% dead", "setting": "[2]; CF pigs, 50 μL 100 mM aerosolized onto airway surface, grids 30 seconds", "value": "64.4 ± 7.0 (5) %"}]}]}
